Patent US20260191818A1 (University of South Carolina, priority 2022, published 2026)

What was measured:
Type in all cases: in vivo, CD2F1 mice
[1] = test system: succinate dehydrogenase (SDH) activity; test: Myofiber metabolic phenotype, succinate dehydrogenase (SDH) staining of TA cryosections; conditions: C26+5FU+Quer vs C26+5FU
Description: To assess skeletal muscle myofiber metabolic phenotype succinate dehydrogenase (SDH) activity was measured. SDH is an enzyme bound to the inner mitochondrial membrane and SDH activity is higher in type 1 fibers. See, Zogby, A. M., et al., Skeletal muscle fiber-type specific succinate dehydrogenase activity in cerebral palsy. Muscle Nerve, 2017. 55(1): p. 122-124. TA tissue cryosections were taken out of the -80° C. and air dried on the laboratory bench and then incubated in an SDH staining solution containing 0.5 mg/ml nitroblue tetrazolium and (Sigma, Cat #: N5514) and 50 mM sodium succinate (Sigma, Cat #: S2378) in PBS for 30 min at 37° C. See, […]., et al., Eccentric contraction-induced myofiber growth in tumor-bearing mice. J Appl Physiol (1985), 2016. 120(1): p. 29-37. Slides were then washed in distilled water 3×1 min before mounting with warmed glycerol mounting media and cover slipped. Images of SDH stains were taken at 4×, 20×, and 40× using a Keyence BZX800 microscope. […] Images were inverted thus higher values corresponded with higher SDH activity.

[2] = test system: mitochondrial complexes I-V, VDAC, cytochrome c; test: Western blot of rectus femoris, mitochondrial content proteins; conditions: C26+5FU+Quer vs C26+5FU; p=0.01
Description: Protein isolation and western blotting was completed similar to what has been previously described. See, Sougiannis, A. T., et al., Impact of weight loss and partial weight regain on immune cell and inflammatory markers in adipose tissue in male mice. J Appl Physiol (1985), 2020. 129(4): p. 909-919. The rectus femoris (RF) was teased from the other quadriceps muscles, cut in half (proximal/distal), snap frozen in liquid nitrogen, and stored at −80° C. The distal RF was homogenized in Mueller Buffer (50 mM Hepes, 0.1% Triton-x, 4 mM EGTA, 10 mM EDTA, 15 mM Na4P207, 100 mM β-glycerophosphate, 25 mM NaF, and 5 mM NaVO4, with protease inhibitor cocktail) using a bead homogenizer at 4° C. Samples were centrifuged and the supernatant was collected and diluted with a diluent buffer (50% Glycerol, 50 mM Na4P2O7, 2.5 mM EGTA, and 1 mM β-mercaptoethanol with protease inhibitor cocktail). Protein concentrations were determined using the Bradford standard protein assay and protein integrity was confirmed with SDS-PAGE and amido black staining. Between 10-50 μg of muscle protein homogenate was separated via SDS-PAGE and transferred to a PVDF membrane. Membranes were stained with Ponceau Red to confirm even loading and transfer efficiency. […] Images were then scanned, and relative protein expression was determined with ImageJ. […]

P62, LC3B, Parkin, BNIP3 = test: Western blot of rectus femoris, autophagy and mitophagy proteins; conditions: C26+5FU+Quer vs C26+5FU
Description: Protein isolation and western blotting was completed similar to what has been previously described. See, Sougiannis, A. T., et al., Impact of weight loss and partial weight regain on immune cell and inflammatory markers in adipose tissue in male mice. J Appl Physiol (1985), 2020. 129(4): p. 909-919. The rectus femoris (RF) was teased from the other quadriceps muscles, cut in half (proximal/distal), snap frozen in liquid nitrogen, and stored at −80° C. The distal RF was homogenized in Mueller Buffer (50 mM Hepes, 0.1% Triton-x, 4 mM EGTA, 10 mM EDTA, 15 mM Na4P207, 100 mM β-glycerophosphate, 25 mM NaF, and 5 mM NaVO4, with protease inhibitor cocktail) using a bead homogenizer at 4° C. Samples were centrifuged and the supernatant was collected and diluted with a diluent buffer (50% Glycerol, 50 mM Na4P2O7, 2.5 mM EGTA, and 1 mM β-mercaptoethanol with protease inhibitor cocktail). […] Between 10-50 μg of muscle protein homogenate was separated via SDS-PAGE and transferred to a PVDF membrane. Membranes were stained with Ponceau Red to confirm even loading and transfer efficiency. Membranes were then washed with tris buffered saline with 0.1% Tween (TBST) before blocking for 1 h at room temp with 5% milk TBST. Membranes were then incubated in primary anti-body (Table 1, see FIG. 8) overnight at 4° C. under gentle agitation. Membranes were then washed 3×5 min and incubated with the appropriate (anti-mouse or rabbit) HRP-linked secondary in 5% milk TBST for 1 h at room temperature. After a final 3×5 min wash membranes were incubated in chemiluminescent HRP substrate before visualization with a Syngene G:box. Images were then scanned, and relative protein expression was determined with ImageJ. Investigator was blinded to sample loading scheme and images were cropped after analysis for representation. All samples (full Ns) were run together for each protein. Dotted lines indicate where gels were cropped.

PPARG, PPARGCA1 = test: RT-PCR of rectus femoris, mitochondrial biogenesis genes; conditions: C26+5FU+Quer vs C26+5FU
Description: RNA from the proximal portion of the RF was isolated as previously described. […] Briefly, RNA was extracted from the RF using the […] procedure (Life Technologies, Gibco-BRL, Carlsbad, CA). RNA sample quality and quantities were verified using a Nanodrop One Microvolume UV-Vis Spectrophotometer (Thermo Fisher Scientific, Waltham, MA). […] Quantitative RT-PCR analysis was carried out as per the manufacturer's instructions (Applied Biosystems) using Taq-Man Gene Expression Assays.

IL-6 = test: Plasma interleukin-6 ELISA; conditions: C26+5FU+Quer vs C26+5FU
Description: Blood was collected retro orbitally prior to euthanasia while the mice were anesthetized. Whole blood was collected and put in an EDTA-coated tubes and store on ice prior to centrifugation (3,000 g at 4° C. for 10 min) for plasma collection. A commercially available IL-6 (SEQ ID NO: 9) enzyme-linked immunosorbent assay (ELISA) kit was obtained from BioLegend (San Diego, CA, USA). Briefly, a Costar clear 96-well plate (Corning, NY, USA) was coated with IL-6 (SEQ ID NO: 9) capture antibody and allowed to incubate overnight. The plate was then blocked with assay diluent buffer, and IL-6 (SEQ ID NO: 9) standards and plasma samples were added to the plate. Wells were then washed and detection antibody was incubated in each well for 1 h. The wells were again washed and then incubated with avidin horseradish peroxidase reagent. After several washes, 3,3′,5,5′-tetramethylbenzidine substrate was added, and the reaction was developed for 20 min. The reaction was stopped with sulfuric acid, and absorbance was measured.

[3] = test system: STAT3, P65/NFκβ, P38/MAPK; test: Western blot of rectus femoris, inflammatory signaling proteins; conditions: C26+5FU+Quer vs C26+5FU
Description: Protein isolation and western blotting was completed similar to what has been previously described. See, Sougiannis, A. T., et al., Impact of weight loss and partial weight regain on immune cell and inflammatory markers in adipose tissue in male mice. J Appl Physiol (1985), 2020. 129(4): p. 909-919. The rectus femoris (RF) was teased from the other quadriceps muscles, cut in half (proximal/distal), snap frozen in liquid nitrogen, and stored at −80° C. The distal RF was homogenized in Mueller Buffer (50 mM Hepes, 0.1% Triton-x, 4 mM EGTA, 10 mM EDTA, 15 mM Na4P207, 100 mM β-glycerophosphate, 25 mM NaF, and 5 mM NaVO4, with protease inhibitor cocktail) using a bead homogenizer at 4° C. Samples were centrifuged and the supernatant was collected and diluted with a diluent buffer (50% Glycerol, 50 mM Na4P2O7, 2.5 mM EGTA, and 1 mM β-mercaptoethanol with protease inhibitor cocktail). Protein concentrations were determined using the Bradford standard protein assay and protein integrity was confirmed with SDS-PAGE and amido black staining. Between 10-50 μg of muscle protein homogenate was separated via SDS-PAGE and transferred to a PVDF membrane. Membranes were stained with Ponceau Red to confirm even loading and transfer efficiency. Membranes were then washed with tris buffered saline with 0.1% Tween (TBST) before blocking for 1 h at room temp with 5% milk TBST. Membranes were then incubated in primary anti-body (Table 1, see FIG. 8) overnight at 4° C. under gentle agitation. Membranes were then washed 3×5 min and incubated with the appropriate (anti-mouse or rabbit) HRP-linked secondary in 5% milk TBST for 1 h at room temperature. After a final 3×5 min wash membranes were incubated in chemiluminescent HRP substrate before visualization with a Syngene G:box. Images were then scanned, and relative protein expression was determined with ImageJ. Investigator was blinded to sample loading scheme and images were cropped after analysis for representation. All samples (full Ns) were run together for each protein. Dotted lines indicate where gels were cropped.

With `O=c1c(O)c(-c2ccc(O)c(O)c2)oc2cc(O)cc(O)c12` [quercetin, 3,4,5,7-pentahydroxylflavone] the “CSA across glycolytic, mixed, and oxidative fibers according to SDH activity” value [1] was “increase”, the “mCSA and SDH across the spectrum of fibers analyzed” value [1] was “increased” and the “change in expression of cytochrome c” value [2] was 48.9%. The “change in LC3b expression” value (P62, LC3B, Parkin, BNIP3; no observed difference, p=0.2) was −33.4%, the “change in P62 expression” value (P62, LC3B, Parkin, BNIP3; no observed difference, p=0.20) was −33.4% and the “change in BNIP3 expression” value (P62, LC3B, Parkin, BNIP3; significant increase, p=0.024) was 555%. For the same compound, the “change in gene expression of PPARG” value (PPARG, PPARGCA1; p=0.04) was −64.0%, the “change in PPARGCA1 gene expression” value (PPARG, PPARGCA1; without changes, p=0.36) was 10.3% and the “plasma IL-6” value (IL-6) was “did not appear that quercetin decreased”. For the same compound, the “change in p/tP65” value ([3]; increased, p=0.03) was 41.9%, the “change in phospho:total P38” value ([3]; p=0.19) was −30.0% and the “change in phospho:total (p/t) STAT3” value ([3]; p=0.36) was 33.2%.
